Some test systems named below: Malme-3M; K562; SR; SF-539; UACC-257; LOX IMVI; HCT-116; 786-0; NCI-H23; DMS-273; MCF7; NCI/ADR-RES; T47D; MDA-MB-231; BT-549; DU-145; Hs-578T; MDA-N; MDA-MB-435; PC-3.
What all share (test): NCI tumour cell line growth inhibition, 48 h

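Values below derive from 48-hour exposures of cells grown in 96-well plates, with endpoints linearly interpolated between the two concentrations bracketing the appropriate inhibition level. GI50 is the concentration that inhibits growth by half.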 Active and inactive are the calls of the source. Rule as the data show it: active = GI50 up to about 1.1 µM and inactive = higher. Where only a bound is given, the exact number is not on record here.

The source of these data is ChEMBL document CHEMBL1201862, “PubChem BioAssay data set” (2004).

With `O=C(O)C(SC(=S)c1ccc(C(=S)SC(C(=O)O)c2ccccc2)cc1)c1ccccc1` (stereo not drawn), the GI50 with Malme-3M is > 100 µM (inactive); with K562 it was 44.5 µM (inactive); with SR, > 100 µM (inactive); in the experiment on SF-539 it was > 100 µM (inactive); with UACC-257 it was > 100 µM (inactive); in the experiment on LOX IMVI it was 50.6 µM (inactive). Also, the GI50 with HCT-116 is > 100 µM (inactive); with 786-0, 40.9 µM (inactive); in the experiment on NCI-H23 it was > 100 µM (inactive); with DMS-273 it was 47.2 µM (inactive).

Regarding `O=C(O)C1CC2C=CCC(C2)C1` (stereo not drawn), the GI50 with Malme-3M, in the experiment on K562, with SR, in the experiment with UACC-257, with LOX IMVI and in the experiment on HCT-116 was > 100 µM (inactive) throughout. For the same compound, the GI50 in the experiment with 786-0, with NCI-H23 and with DMS-273 was > 100 µM (inactive) in each case.

On to `COc1cc(C(=O)CC2OC(=O)C(Cl)=C2Cl)ccc1Cl` (stereo not drawn), for which the GI50 with Malme-3M, in the experiment on K562, in the experiment on SR, with SF-539, in the experiment on UACC-257 and with LOX IMVI was > 100 µM (inactive) throughout. Further, the GI50 in the experiment on HCT-116, with NCI-H23 and with DMS-273 was > 100 µM (inactive) throughout.

On to `c1ccc(COc2cccc3ccc[n+](Cc4ccccc4)c23)cc1`, for which the GI50 is 4.23 µM (inactive) in the experiment with Malme-3M; 2.38 µM (inactive) in the experiment on K562; 7.82 µM (inactive) with SF-539; 2.61 µM (inactive) in the experiment on UACC-257; 13.4 µM (inactive) in the experiment on 786-0; 2.84 µM (inactive) in the experiment on NCI-H23. Moreover, the GI50 in the experiment with DMS-273 was 3.8 µM (inactive).

As for `Cc1c2ccncc2c(C)c2c1[nH]c1ccc(OCCN(C)C)cc12`, the GI50 in the experiment with Malme-3M was 1.16 µM (inactive); with MCF7, 0.164 µM (active); in the experiment on NCI/ADR-RES it was 0.0916 µM (active); in the experiment with K562, 0.0614 µM (active); in the experiment on SF-539, 0.832 µM (active); in the experiment on UACC-257, 0.92 µM (active). Moreover, the GI50 in the experiment on LOX IMVI was 0.063 µM (active); with HCT-116 it was 0.0455 µM (active); in the experiment with NCI-H23, 0.416 µM (active); in the experiment on DMS-273, 0.0998 µM (active).

For the compound `CC(C)(C)C(=O)N1C(C(=O)O)Cc2ccccc2[C@@H]1Cc1ccccc1` (stereo partly drawn), the GI50 in the experiment on Malme-3M, with K562, with SF-539, in the experiment with UACC-257, in the experiment on HCT-116 and with 786-0 was > 100 µM (inactive) each time. In addition, the GI50 in the experiment with NCI-H23 and in the experiment with DMS-273 was > 100 µM (inactive) each time.

For the compound `C1=CCN(c2ccccc2)CC1`, the GI50 with Malme-3M is 22.6 µM (inactive); in the experiment on K562 it was 30.1 µM (inactive); in the experiment on SR it was 2.93 µM (inactive); in the experiment on SF-539, 43.5 µM (inactive); in the experiment on UACC-257, 28.4 µM (inactive); in the experiment with LOX IMVI, 43.9 µM (inactive). The results for the GI50 in the experiment on HCT-116, in the experiment on NCI-H23 and in the experiment with DMS-273 were 29.6 µM (inactive), 31.5 µM (inactive) and > 100 µM (inactive), respectively.

`CC(C)OP(=O)(OC(C)C)/C(F)=N/Nc1ccc([N+](=O)[O-])cc1`: the GI50 with Malme-3M, in the experiment on K562, with SR, in the experiment with SF-539, with UACC-257 and in the experiment on HCT-116 was > 100 µM (inactive) throughout. In addition, the GI50 in the experiment on NCI-H23 and with DMS-273 was > 100 µM (inactive) each time.

As for `O=c1oc2c(O)c(O)c(O)c3c(=O)oc4c(O)c(O)cc1c4c23` [FLAVELLAGIC ACID], the GI50 in the experiment with Malme-3M was > 100 µM (inactive); in the experiment on K562, 25.6 µM (inactive); in the experiment with SR, > 100 µM (inactive); in the experiment with SF-539, > 100 µM (inactive); in the experiment on UACC-257, > 100 µM (inactive); in the experiment with LOX IMVI, 18 µM (inactive). For the same compound, the GI50 with HCT-116 is 89.9 µM (inactive); in the experiment with 786-0, 62.8 µM (inactive); with NCI-H23 it was > 100 µM (inactive); in the experiment with DMS-273 it was 85.1 µM (inactive).

In the case of `CC1SC2=NC3=C(c4ccccc4C3=O)C(c3ccccc3Cl)N2C1=O` (stereo not drawn), the GI50 was > 100 µM (inactive) in the experiment on Malme-3M; 90.2 µM (inactive) in the experiment on K562; > 100 µM (inactive) in the experiment with SF-539; > 100 µM (inactive) with UACC-257; > 100 µM (inactive) with LOX IMVI; > 100 µM (inactive) in the experiment on HCT-116. Moreover, the GI50 in the experiment with 786-0 is > 100 µM (inactive); in the experiment with NCI-H23 it was 85.7 µM (inactive); in the experiment on DMS-273 it was > 100 µM (inactive).

`CN(N=O)c1nc2c(C(N)=O)ncn2s1`: the GI50 with T47D was > 100 µM (inactive); in the experiment on Malme-3M, 85.7 µM (inactive); in the experiment on MCF7, 86.7 µM (inactive); with NCI/ADR-RES, 39.7 µM (inactive); with K562, 48.4 µM (inactive); with MDA-MB-231, 36.3 µM (inactive). In addition, the GI50 with BT-549 is > 100 µM (inactive); with SR it was 48.9 µM (inactive); with DU-145, 20 µM (inactive); in the experiment with Hs-578T, > 100 µM (inactive); in the experiment on MDA-N, > 100 µM (inactive); with MDA-MB-435, 53.2 µM (inactive). Moreover, the GI50 in the experiment on SF-539 was 80.7 µM (inactive); in the experiment with UACC-257, 94.6 µM (inactive); with LOX IMVI it was 15.2 µM (inactive); in the experiment with PC-3, 91.2 µM (inactive); in the experiment with HCT-116, 53 µM (inactive); in the experiment on 786-0 it was 85.1 µM (inactive). Further, the GI50 in the experiment with NCI-H23 was > 100 µM (inactive).
